Data published in ChEMBL document CHEMBL1141099, “Discovery of N-(2,6-dimethylphenyl)-substituted semicarbazones as anticonvulsants: hybrid pharmacophore-based design” (2005).

What was measured:
Mus musculus [1] = experiment: Minimum dose required for anticonvulsant activity when given i.p., at 0.5 hr in mice upon subcutaneous strychnine seizure; type: functional
Rattus norvegicus [2] = organism: Rattus norvegicus; experiment: Ex vitro percentage inhibition activity against GABA-T enzyme at a concentration of 1.25 uM after 6 h; type: functional
Rattus norvegicus [3] = experiment: Number of rats protected at a dose of 30 mg/Kg when given oral at 2 hr upon maximal electroshock seizure; Total number of rats = 4; type: functional
Mus musculus [4] = experiment: Post treatment activity score for CNS study using a actophotometer at a dose of 100 mg/Kg after 0.5 hr when given i.p., in mice (No. of animals 6); Control (24h before) 281
Mus musculus [5] = experiment: Minimum dose required for anticonvulsant activity when given i.p., at 0.5 hr in mice upon subcutaneous pentylenetetrazole seizure; type: functional
Rattus norvegicus [6] = organism: Rattus norvegicus; experiment: Ex vitro percentage inhibition activity against GABA-T enzyme at a concentration of 1.25 uM after 4.5 h; type: functional
Rattus norvegicus [7] = organism: Rattus norvegicus; experiment: Protective index between effective dose and toxic dose in rat; type: functional
Mus musculus [8] = experiment: Minimum dose required for anticonvulsant activity when given i.p., at 0.5 hr in mice upon neurotoxicity seizure using rotarod test; type: functional
Mus musculus [9] = experiment: Post treatment immobility time for CNS study using Porsolt's swimpool test at a dose of 100 mg/Kg after 1 hr when given i.p., in mice (No. of animals 6); Control (24h before) 132
Rattus norvegicus [10] = experiment: Number of rats protected at a dose of 30 mg/Kg when given oral at 0.5 hr upon maximal electroshock seizure; Total number of rats = 4; type: functional
Mus musculus [11] = experiment: Minimum dose required for anticonvulsant activity when given i.p., at 0.5 hr in mice upon maximal electroshock seizure; type: functional
Mus musculus [12] = experiment: Mean sleeping time evaluated for CNS study using the pentobarbital-induced narcosis model at a dose of 100 mg/Kg when given i.p., in mice (No. of animals 6)
Rattus norvegicus [13] = organism: Rattus norvegicus; experiment: Ex vitro percentage inhibition activity against GABA-T enzyme at a concentration of 1.25 uM after 3 h; type: functional
Rattus norvegicus [14] = experiment: Toxic dose observed for anticonvulsant activity when given i.p., at 0.5 hr in rat upon neurotoxicity seizure; type: functional; settings: ip
Rattus norvegicus [15] = experiment: Effect on GABA level in rat whole brain concentration after 2 hr post-treatment at a dose of 100 mg/Kg when given i.p.; Control 48.4; type: functional
Rattus norvegicus [16] = experiment: Number of rats protected at a dose of 30 mg/Kg when given oral at 4 hr upon maximal electroshock seizure; Total number of rats = 4; type: functional
Mus musculus [17] = experiment: Minimum dose required for anticonvulsant activity when given i.p., at 4 hr in mice upon maximal electroshock seizure; type: functional
Mus musculus [18] = experiment: Post treatment activity score for CNS study using a actophotometer at a dose of 100 mg/Kg after 1 hr when given i.p., in mice (No. of animals 6); Control (24h before) 281
Rattus norvegicus [19] = experiment: Number of rats protected at a dose of 30 mg/Kg when given oral at 1 hr upon maximal electroshock seizure; Total number of rats = 4; type: functional
[20] = molecular target: 4-aminobutyrate aminotransferase, mitochondrial (Rattus norvegicus) (UniProt P50554); experiment: In vitro percentage inhibition activity against GABA-T enzyme at a concentration of 0.625 uM after 6 h
Chain of 4-aminobutyrate aminotransferase, mitochondrial (Rattus norvegicus) (P50554 28-500 limits assumed): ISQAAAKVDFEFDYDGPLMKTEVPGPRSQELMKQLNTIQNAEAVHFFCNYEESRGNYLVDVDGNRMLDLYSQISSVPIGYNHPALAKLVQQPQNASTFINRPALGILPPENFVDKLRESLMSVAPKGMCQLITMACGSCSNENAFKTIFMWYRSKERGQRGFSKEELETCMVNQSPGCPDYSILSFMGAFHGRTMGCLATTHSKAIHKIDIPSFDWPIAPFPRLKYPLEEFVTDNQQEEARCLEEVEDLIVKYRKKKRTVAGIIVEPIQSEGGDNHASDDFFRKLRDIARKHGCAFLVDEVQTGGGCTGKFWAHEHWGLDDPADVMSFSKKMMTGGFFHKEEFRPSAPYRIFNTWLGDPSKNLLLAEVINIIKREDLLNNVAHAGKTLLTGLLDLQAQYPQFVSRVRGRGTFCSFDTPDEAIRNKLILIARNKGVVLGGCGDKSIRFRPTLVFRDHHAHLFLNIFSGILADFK

Rattus norvegicus [21] = experiment: Effect on GABA level in rat whole brain concentration after 7 days post-treatment at a dose of 30 mg/Kg when given orally; Control 50.5; type: functional
[22] = molecular target: 4-aminobutyrate aminotransferase, mitochondrial (Rattus norvegicus) (UniProt P50554); experiment: In vitro percentage inhibition activity against GABA-T enzyme at a concentration of 0.625 uM after 3 h
Rattus norvegicus [23] = experiment: Effective dose required for anticonvulsant activity when given i.p., at 0.5 hr in rat upon maximal electroshock seizure; type: functional; settings: ip
[24] = molecular target: 4-aminobutyrate aminotransferase, mitochondrial (Rattus norvegicus) (UniProt P50554); experiment: In vitro percentage inhibition activity against GABA-T enzyme at a concentration of 0.625 uM after 4.5 h
Rattus norvegicus [25] = experiment: Number of rats protected at a dose of 30 mg/Kg when given oral at 0.25 hr upon maximal electroshock seizure; Total number of rats = 4; type: functional

Question: Which STY seizure (Mus musculus [1]) does the source give for Cc1cccc(C)c1NC(=O)N/N=C/c1ccccc1[N+](=O)[O-] here?
Answer: Its STY seizure is 100 mg/kg.

Question: And the Inhibition (Rattus norvegicus [2])?
Answer: Its Inhibition is 23%.

Question: And the Activity (Rattus norvegicus [3])?
Answer: The Activity was 2.

Question: And the Activity (Mus musculus [4])?
Answer: Its Activity is 177.

Question: What about the PTZ seizure (Mus musculus [5]) of the same molecule?
Answer: Its PTZ seizure is 300 mg/kg.

Question: And the Inhibition (Rattus norvegicus [6])?
Answer: The Inhibition was 98%.

Question: And the PI (Rattus norvegicus [7])?
Answer: The PI was >4.3.

Question: And the NT (Mus musculus [8])?
Answer: Its NT is 300 mg/kg.

Question: And the Activity (Mus musculus [9])?
Answer: The Activity was 190.

Question: What about the Activity (Rattus norvegicus [10]) of the same molecule?
Answer: The Activity was 2.

Question: What about the MES (Mus musculus [11]) of the same molecule?
Answer: The MES was 300 mg/kg.

Question: And the Time (Mus musculus [12])?
Answer: Its Time is 141 min.

Question: And the Inhibition (Rattus norvegicus [13])?
Answer: The Inhibition was 0%.

Question: And the TD50 (Rattus norvegicus [14])?
Answer: Its TD50 is > 100 mg/kg.

Question: What about the Activity (Rattus norvegicus [15]) of the same molecule?
Answer: The Activity was 84.7 ug/100mg of tissue.

Question: What about the Activity (Rattus norvegicus [16]) of the same molecule?
Answer: The Activity was 2.

Question: And the MES (Mus musculus [17])?
Answer: The MES was 300 mg/kg.

Question: And the Activity (Mus musculus [18])?
Answer: Its Activity is 177.

Question: And the Activity (Rattus norvegicus [19])?
Answer: Its Activity is 2.

Question: And the inhibition [20]?
Answer: Its inhibition is 40%.

Question: And the Activity (Rattus norvegicus [21])?
Answer: The Activity was 81.6 ug/100mg of tissue.

Question: And the inhibition [22]?
Answer: Its inhibition is 53%.

Question: And the ED50 (Rattus norvegicus [23])?
Answer: Its ED50 is 23.2 mg/kg.

Question: And the inhibition [24]?
Answer: Its inhibition is 0%.

Question: And the Activity (Rattus norvegicus [25])?
Answer: The Activity was 2.
